In patent US6867207B2, “IL-5 inhibiting 6-azauracil derivatives” (Janssen Pharmaceutica N.V., priority 1997, dated 2005):

tested on: IL-5 production; test: In vitro inhibition of IL-5 production in human blood (phytohemagglutinin-stimulated whole blood, ELISA); assay type: cell-based; settings: test dose 1×10^−5 M (values marked *), 48 hours, read-out: % inh. (percentage inhibition of IL-5 production), marked with *
How it was run: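 Heparinised blood from healthy male donors, diluted threefold in RPMI 1640, preincubated 60 min at 37° C with compound (0.02% DMSO vehicle), then stimulated with 2 μg/mL phytohemagglutinin for 48 h. Supernatant IL-5 measured by ELISA; percentage inhibition at 1×10^−6 M or 1×10^−5 M.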

`O=c1cnn(-c2ccc(C(c3ccc(Cl)cc3)N3CCC(O)CC3)c(Cl)c2)c(=O)[nH]1` (racemic) [Compound 119, (±)-2-[3-chloro-4-[(4-chlorophenyl)(4-hydroxy-1-piperidinyl)methyl]phenyl]-1,2,4-triazine-3,5(2H,4H)-dione] was tested, and the inhibition at 10 µM was 72%.

same assay, conditions: test dose 1×10^−6 M, 48 hours

Going from `NS(=O)(=O)Nc1cccc(-c2nnc(C(c3ccc(Cl)cc3)c3c(Cl)cc(-n4ncc(=O)[nH]c4=O)cc3Cl)o2)c1.O` (racemic) [Compound 221] to `COc1cccc(-c2nnc(C(c3ccc(Cl)cc3)c3c(Cl)cc(-n4ncc(=O)[nH]c4=O)cc3Cl)o2)c1` (racemic) [Compound 170], the “% inh. (percentage inhibition of IL-5 production)” value rises from −2% to 62%.

Going from `O=c1cnn(-c2ccc(C(O)(c3ccc(Cl)cc3)c3nc4ccccc4s3)c(Cl)c2)c(=O)[nH]1` (centres unmarked) [Comp 111] to `O=c1cnn(-c2ccc(C(Sc3nc4ccccc4o3)c3ccc(Cl)cc3)c(Cl)c2)c(=O)[nH]1` (racemic) [Compound 71], the “% inh. (percentage inhibition of IL-5 production)” value rises from 61% to 84%.

Compared with `Cc1nc(-c2ccccc2Cl)sc1C(c1ccc(Cl)cc1)c1ccc(-n2ncc(=O)[nH]c2=O)cc1Cl` (racemic) [Compound 154], `O=c1cnn(-c2ccc(C(c3ccc(Cl)cc3)c3sc(-c4ccccc4Cl)nc3-c3ccccc3)c(Cl)c2)c(=O)[nH]1` (racemic) [Compound 150] is higher in “% inh. (percentage inhibition of IL-5 production)” value: 42% for the first, 48% for the second.

Going from `CN(C)Cc1nnc(C(c2ccc(Cl)cc2)c2c(Cl)cc(-n3ncc(=O)[nH]c3=O)cc2Cl)o1` (racemic) [Compound 198] to `CCOC(=O)c1nnc(C(c2ccc(Cl)cc2)c2c(Cl)cc(-n3ncc(=O)[nH]c3=O)cc2Cl)o1` (racemic) [Compound 186], the “% inh. (percentage inhibition of IL-5 production)” value falls from 46% to 8%.

First: O=c1cnn(-c2cc(Cl)c(C(c3ccc(Cl)cc3)c3nnc(-c4ccccc4[N+](=O)[O-])o3)c(Cl)c2)c(=O)[nH]1 (racemic) [Compound 210]
Second: Cc1ccccc1-c1nnc(C(c2ccc(Cl)cc2)c2c(Cl)cc(-n3ncc(=O)[nH]c3=O)cc2Cl)o1 (racemic) [Compound 188]
The “% inh. (percentage inhibition of IL-5 production)” value of the first is lower: 79% for the first, 95% for the second.

Compared with `O=c1cnn(-c2ccc(C(c3ccc(Cl)cc3)n3cncn3)c(Cl)c2)c(=O)[nH]1` (racemic) [Comp 97], `Cc1nnc(C(c2ccc(Cl)cc2)c2ccc(-n3ncc(=O)[nH]c3=O)cc2Cl)o1` (racemic) [Comp 102] is lower in “% inh. (percentage inhibition of IL-5 production)” value: 26% for the first, 14% for the second.

Compared with `O=c1cnn(-c2cc(Cl)c(C(c3ccc(Cl)cc3)c3nc(-c4c(Cl)cccc4Cl)cs3)c(Cl)c2)c(=O)[nH]1` (racemic) [Comp 264], `COc1ccc(Br)c(-c2csc(C(c3ccc(Cl)cc3)c3c(Cl)cc(-n4ncc(=O)[nH]c4=O)cc3Cl)n2)c1` (racemic) [Comp 25] is higher in “% inh. (percentage inhibition of IL-5 production)” value: 79% for the first, 88% for the second.

First: CN(C)CCN(C)Cc1sc(C(c2ccc(Cl)cc2)c2c(Cl)cc(-n3ncc(=O)[nH]c3=O)cc2Cl)nc1-c1ccccc1 (racemic) [Comp 311]
Second: CC(C)c1sc(C(c2ccc(Cl)cc2)c2c(Cl)cc(-n3ncc(=O)[nH]c3=O)cc2Cl)nc1-c1ccccc1 (racemic) [Compound 241, (±)-2-[3,5-dichloro-4-[(4-chlorophenyl)[5-(1-methylethyl)-4-phenyl-2-thiazolyl]methyl]-phenyl-1,2,4-triazin-3,5(2H,4H)-dione]
The “% inh. (percentage inhibition of IL-5 production)” value of the first is lower: 64% for the first, 95% for the second.

First: O=c1cnn(-c2cc(Cl)c(C(Sc3nc4ccccc4o3)c3ccc(Cl)c(C(F)(F)F)c3)c(Cl)c2)c(=O)[nH]1 (centres unmarked) [Compound 379]
Second: O=c1cnn(-c2cc(Cl)c(C(Sc3nc(-c4ccco4)cs3)c3ccc(Cl)c(C(F)(F)F)c3)c(Cl)c2)c(=O)[nH]1 (racemic) [Compound 399]
The “% inh. (percentage inhibition of IL-5 production)” value of the first is higher: 95% for the first, 93% for the second.

Going from `O=c1cnn(-c2cc(Cl)c(C(c3ccc(Cl)cc3)c3nnc(COc4ccccc4Cl)o3)c(Cl)c2)c(=O)[nH]1` (racemic) [Compound 175] to `O.O=c1cnn(-c2cc(Cl)c(C(c3ccc(Cl)cc3)c3nnc(-c4ccccc4Cl)o3)c(Cl)c2)c(=O)[nH]1` (racemic) [Compound 163], the “% inh. (percentage inhibition of IL-5 production)” value rises from 58% to 90%.

Compared with `CCOC(=O)c1csc(C(c2ccc(Cl)cc2)c2c(Cl)cc(-n3ncc(=O)[nH]c3=O)cc2Cl)n1` (racemic) [Comp 27], `O=c1cnn(-c2cc(Cl)c(C(c3ccc(Cl)cc3)c3nc(-c4cc(F)cc(F)c4)cs3)c(Cl)c2)c(=O)[nH]1` (racemic) [Comp 286] is higher in “% inh. (percentage inhibition of IL-5 production)” value: 64% for the first, 86% for the second.

Going from `O=c1cnn(-c2ccc(C(c3ccc(Cl)cc3)c3nnc(-c4ccccc4)s3)c(Cl)c2)c(=O)[nH]1` (centres unmarked) [Comp 414] to `O=C(NC(c1ccc(Cl)cc1)c1ccc(-n2ncc(=O)[nH]c2=O)cc1Cl)c1ccccc1` (racemic) [Compound 47, (±)-N-[[2-chloro-4-(4,5-dihydro-3,5-dioxo-1,2,4-triazin-3(2H)-yl)phenyl](4-chlorophenyl)methyl]benzamide], the “% inh. (percentage inhibition of IL-5 production)” value rises from 30% to 33%.

Compared with `Cc1sc(C(c2ccc(Cl)cc2)c2c(Cl)cc(-n3ncc(=O)[nH]c3=O)cc2Cl)nc1-c1cccc(F)c1` (racemic) [Comp 258], `Cc1sc(C(c2ccc(Cl)cc2)c2c(Cl)cc(-n3ncc(=O)[nH]c3=O)cc2Cl)nc1-c1ccccc1Cl` (racemic) [Comp 272] is lower in “% inh. (percentage inhibition of IL-5 production)” value: 98% for the first, 87% for the second.

Going from `Cc1nc(-c2ccccc2Cl)c(C(c2ccc(Cl)cc2)c2c(Cl)cc(-n3ncc(=O)[nH]c3=O)cc2Cl)s1` (racemic) [Compound 135] to `COc1ccccc1-c1nnc(C(c2ccc(Cl)cc2)c2c(Cl)cc(-n3ncc(=O)[nH]c3=O)cc2Cl)o1` (racemic) [Compound 171], the “% inh. (percentage inhibition of IL-5 production)” value falls from 88% to 59%.

Going from `COc1ccc(-c2ccnc(SC(c3ccc(Cl)cc3)c3ccc(-n4ncc(=O)[nH]c4=O)cc3Cl)n2)cc1` (racemic) [Compound 79] to `Nc1cc(N)nc(SC(c2ccc(Cl)cc2)c2ccc(-n3ncc(=O)[nH]c3=O)cc2Cl)n1` (racemic) [Compound 70], the “% inh. (percentage inhibition of IL-5 production)” value falls from 74% to 51%.

Compared with `CN1CCC(Nc2ccnc(SC(c3ccc(Cl)cc3)c3c(Cl)cc(-n4ncc(=O)[nH]c4=O)cc3Cl)n2)CC1.Cl.O` (racemic) [Compound 354], `O=c1cnn(-c2cc(Cl)c(C(Sc3ccncn3)c3ccc(Cl)cc3)c(Cl)c2)c(=O)[nH]1` (racemic) [Compound 409] is higher in “% inh. (percentage inhibition of IL-5 production)” value: 70% for the first, 88% for the second.

First: O=c1cnn(-c2ccc(C(Sc3ccccn3)c3ccc(Cl)c(C(F)(F)F)c3)c(Cl)c2)c(=O)[nH]1 (centres unmarked) [Compound 86]
Second: O=c1cnn(-c2ccc(C(Sc3ccc(C(F)(F)F)cn3)c3ccc(Cl)cc3)c(Cl)c2)c(=O)[nH]1 (centres unmarked) [Compound 88]
The “% inh. (percentage inhibition of IL-5 production)” value of the first is higher: 84% for the first, 26% for the second.

Compared with `O=c1cnn(-c2cc(Cl)c(C(c3ccc(Cl)cc3)c3nc(-c4ccccc4)c(C4CCCCC4)s3)c(Cl)c2)c(=O)[nH]1` (racemic) [Comp 284], `O=c1cnn(-c2cc(Cl)c(C(c3ccc(Cl)cc3)c3nc(-c4ccccc4)c(CN4CCOCC4)s3)c(Cl)c2)c(=O)[nH]1` (racemic) [Comp 292] is higher in “% inh. (percentage inhibition of IL-5 production)” value: 91% for the first, 94% for the second.

Going from `Cc1nc(-c2ccccc2)c(C(c2ccc(Cl)cc2)c2ccc(-n3ncc(=O)[nH]c3=O)cc2)s1` (racemic) [Compound 146] to `Cc1nc(-c2cccc(F)c2)c(C(c2ccc(Cl)cc2)c2ccc(-n3ncc(=O)[nH]c3=O)cc2Cl)s1` (racemic) [Compound 143], the “% inh. (percentage inhibition of IL-5 production)” value falls from 83% to 81%.

Compared with `COCCNC(=O)c1sc(C(c2ccc(Cl)cc2)c2c(Cl)cc(-n3ncc(=O)[nH]c3=O)cc2Cl)nc1-c1ccccc1` (racemic) [Comp 307], `O=c1cnn(-c2cc(Cl)c(C(c3ccc(Cl)cc3)c3nc(-c4ccccc4)c(CNC(=S)Nc4ccccc4)s3)c(Cl)c2)c(=O)[nH]1` (racemic) [Compound 331, (±)-N-[[2-[(4-chlorophenyl)[2,6-dichloro-(4,5-dihydro-3,5-dioxo-1,2,4-triazin-2(3H)-yl)phenyl]methyl]4-phenyl-5-thiazolyl]methyl]-N′-phenyl-thiourea] is higher in “% inh. (percentage inhibition of IL-5 production)” value: 78% for the first, 95% for the second.

Compared with `O=c1cnn(-c2cc(Cl)c(C(SCc3cnccn3)c3ccc(Cl)cc3)c(Cl)c2)c(=O)[nH]1` (racemic) [Compound 407], `Cc1oc(C(c2ccc(Cl)cc2)c2c(Cl)cc(-n3ncc(=O)[nH]c3=O)cc2Cl)nc1-c1ccc(F)cc1` (centres unmarked) [Comp 431] is lower in “% inh. (percentage inhibition of IL-5 production)” value: 71% for the first, 67% for the second.

For `O=c1cnn(-c2cc(Cl)c(C(Nc3nc(-c4ccccc4)cs3)c3ccc(Cl)c(C(F)(F)F)c3)c(Cl)c2)c(=O)[nH]1` (racemic) [Compound 411], the “% inh. (percentage inhibition of IL-5 production)” value was 94%.

same assay, conditions: test dose 1×10^−6 M, 48 hours, read-out: % inh. (percentage inhibition of IL-5 production)

Going from `O=c1cnn(-c2ccc(C(Nc3ncccn3)c3ccc(Cl)cc3)c(Cl)c2)c(=O)[nH]1` (racemic) [Compound 49, (±)-2-[3-chloro-4-[(4-chlorophenyl)(2-pyrimidinylamino)methyl]phenyl]-1,2,4-triazine-3,5(2H,4H)-dione] to `O=c1cnn(-c2ccc(C(Sc3ccccn3)c3ccc(Cl)cc3)c(Cl)c2)c(=O)[nH]1` (racemic) [Compound 93, (±)-2-[3-chloro-4-[(4-chlorophenyl)(2-pyridinyl-thio)methyl]phenyl]-1,2,4-triazine-3,5(2H,4H)-dione], the inhibition at 1 µM rises from 61% to 86%.

Work on `CN1CCN(C(c2ccc(Cl)cc2)c2ccc(-n3ncc(=O)[nH]c3=O)cc2Cl)CC1` (racemic) [Compound 118, (±)-2-[3-chloro-4-[(4-chlorophenyl)(4-methyl-1-piperazinyl)methyl]phenyl]-1,2,4-triazine-3,5(2H,4H)-dione] yielded an inhibition at 1 µM of 34%.
